From PubChem BioAssay (NCI)
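These data come from cells grown in 96-well plates and exposed to compound for 48 hours at five concentrations. TGI marks complete inhibition of growth.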

How the values were obtained:
Assay in all cases: DTP human tumour cell line panel, 48 h
NCI-H522 lung = tested on: NCI-H522 lung
M19-MEL melanoma = tested on: M19-MEL melanoma
K-562 leukemia = tested on: K-562 leukemia
SK-MEL-28 melanoma = tested on: SK-MEL-28 melanoma
CCRF-CEM leukemia = tested on: CCRF-CEM leukemia
LXFL 529 NSCLC = tested on: LXFL 529 NSCLC
RXF 393 renal = tested on: RXF 393 renal
MOLT-4 leukemia = tested on: MOLT-4 leukemia
A498 renal = tested on: A498 renal
UO-31 renal = tested on: UO-31 renal
OVCAR-4 ovarian = tested on: OVCAR-4 ovarian
SN12C renal = tested on: SN12C renal
HL-60(TB) leukemia = tested on: HL-60(TB) leukemia
SNB-78 CNS = tested on: SNB-78 CNS
DMS 273 small cell lung = tested on: DMS 273 small cell lung
NCI-H23 lung = tested on: NCI-H23 lung
HCT-15 colon = tested on: HCT-15 colon
HCC-2998 colon = tested on: HCC-2998 colon
SNB-75 CNS = tested on: SNB-75 CNS
RPMI-8226 leukemia = tested on: RPMI-8226 leukemia
TK-10 renal = tested on: TK-10 renal
HCT-116 colon = tested on: HCT-116 colon
SF-295 CNS = tested on: SF-295 CNS
ACHN renal = tested on: ACHN renal
HOP-18 NSCLC = tested on: HOP-18 NSCLC
SF-268 CNS = tested on: SF-268 CNS
LOX IMVI melanoma = tested on: LOX IMVI melanoma
DLD-1 colon = tested on: DLD-1 colon
HOP-62 NSCLC = tested on: HOP-62 NSCLC
A549 NSCLC = tested on: A549 NSCLC
KM20L2 colon = tested on: KM20L2 colon
OVCAR-8 ovarian = tested on: OVCAR-8 ovarian
SW-620 colon = tested on: SW-620 colon
SR leukemia = tested on: SR leukemia
U251 CNS = tested on: U251 CNS
KM12 colon = tested on: KM12 colon
CAKI-1 renal = tested on: CAKI-1 renal
UACC-257 melanoma = tested on: UACC-257 melanoma
786-0 renal = tested on: 786-0 renal
UACC-62 melanoma = tested on: UACC-62 melanoma
NCI-H226 lung = tested on: NCI-H226 lung
MALME-3M melanoma = tested on: MALME-3M melanoma
OVCAR-3 ovarian = tested on: OVCAR-3 ovarian
COLO 205 colon = tested on: COLO 205 colon
SK-MEL-5 melanoma = tested on: SK-MEL-5 melanoma
M14 melanoma = tested on: M14 melanoma
HT29 colon = tested on: HT29 colon
OVCAR-5 ovarian = tested on: OVCAR-5 ovarian
SK-MEL-2 melanoma = tested on: SK-MEL-2 melanoma
SF-539 CNS = tested on: SF-539 CNS
RXF-631 renal = tested on: RXF-631 renal
SK-OV-3 ovarian = tested on: SK-OV-3 ovarian
DMS 114 small cell lung = tested on: DMS 114 small cell lung
SNB-19 CNS = tested on: SNB-19 CNS
IGROV1 ovarian = tested on: IGROV1 ovarian
HOP-92 NSCLC = tested on: HOP-92 NSCLC
NCI-H460 lung = tested on: NCI-H460 lung
EKVX NSCLC = tested on: EKVX NSCLC
XF 498 CNS = tested on: XF 498 CNS

Work on Cc1cc(Cl)ccc1N1C(=O)C(=O)C(c2nc3ccccc3s2)/C(=N\NC(=O)c2ccccc2O)C1=O (stereo unspecified) yielded a TGI (NCI-H522 lung) greater than 100 µM, a TGI (M19-MEL melanoma) greater than 100 µM and a TGI (K-562 leukemia) greater than 100 µM. It also gave a TGI (SK-MEL-28 melanoma) greater than 100 µM, a TGI (CCRF-CEM leukemia) greater than 100 µM and a TGI (LXFL 529 NSCLC) greater than 100 µM. It also gave a TGI (RXF 393 renal) greater than 100 µM, a TGI (MOLT-4 leukemia) greater than 21 µM and a TGI (A498 renal) greater than 100 µM. The TGI (UO-31 renal) was greater than 100 µM, the TGI (OVCAR-4 ovarian) was greater than 100 µM and the TGI (SN12C renal) was greater than 100 µM. For the same compound, the TGI (HL-60(TB) leukemia) was greater than 100 µM, the TGI (SNB-78 CNS) was greater than 100 µM and the TGI (DMS 273 small cell lung) was greater than 100 µM. The TGI (NCI-H23 lung) was greater than 100 µM, the TGI (HCT-15 colon) was greater than 100 µM and the TGI (HCC-2998 colon) was greater than 100 µM. It also gave a TGI (SNB-75 CNS) greater than 100 µM, a TGI (RPMI-8226 leukemia) greater than 100 µM and a TGI (TK-10 renal) greater than 100 µM. The TGI (HCT-116 colon) was greater than 100 µM, the TGI (SF-295 CNS) was greater than 100 µM and the TGI (ACHN renal) was greater than 100 µM. The TGI (HOP-18 NSCLC) was greater than 100 µM, the TGI (SF-268 CNS) was greater than 100 µM and the TGI (LOX IMVI melanoma) was greater than 100 µM. It also gave a TGI (DLD-1 colon) greater than 100 µM, a TGI (HOP-62 NSCLC) greater than 100 µM and a TGI (A549 NSCLC) greater than 100 µM. The TGI (KM20L2 colon) was greater than 100 µM, the TGI (OVCAR-8 ovarian) was greater than 100 µM and the TGI (SW-620 colon) was greater than 100 µM. For the same compound, the TGI (SR leukemia) was greater than 100 µM, the TGI (U251 CNS) was greater than 100 µM and the TGI (KM12 colon) was greater than 100 µM. The TGI (CAKI-1 renal) was greater than 100 µM, the TGI (UACC-257 melanoma) was greater than 100 µM and the TGI (786-0 renal) was greater than 100 µM. It also gave a TGI (UACC-62 melanoma) greater than 100 µM, a TGI (NCI-H226 lung) greater than 100 µM and a TGI (MALME-3M melanoma) greater than 100 µM. It also gave a TGI (OVCAR-3 ovarian) greater than 100 µM, a TGI (COLO 205 colon) greater than 100 µM and a TGI (SK-MEL-5 melanoma) greater than 100 µM. For the same compound, the TGI (M14 melanoma) was greater than 100 µM, the TGI (HT29 colon) was greater than 100 µM and the TGI (OVCAR-5 ovarian) was greater than 100 µM. The TGI (SK-MEL-2 melanoma) was greater than 100 µM, the TGI (SF-539 CNS) was greater than 100 µM and the TGI (RXF-631 renal) was greater than 100 µM. The TGI (SK-OV-3 ovarian) was greater than 100 µM, the TGI (DMS 114 small cell lung) was greater than 100 µM and the TGI (SNB-19 CNS) was greater than 100 µM. It also gave a TGI (IGROV1 ovarian) greater than 100 µM, a TGI (HOP-92 NSCLC) greater than 100 µM and a TGI (NCI-H460 lung) greater than 100 µM. The TGI (EKVX NSCLC) was greater than 100 µM.

COC(=O)/C=C\C1C(C(=O)OC)C2(C(=O)OC)CCC1(C(=O)OC)N2 (stereo unspecified) showed a TGI (NCI-H522 lung) of 1.76 µM, a TGI (M19-MEL melanoma) of 27.9 µM and a TGI (K-562 leukemia) of 53.2 µM. For the same compound, the TGI (SK-MEL-28 melanoma) was 26.4 µM, the TGI (XF 498 CNS) was 34.3 µM and the TGI (CCRF-CEM leukemia) was 21.8 µM. The TGI (LXFL 529 NSCLC) was 19.3 µM, the TGI (RXF 393 renal) was 19.7 µM and the TGI (MOLT-4 leukemia) was 14.7 µM. The TGI (A498 renal) was 32.9 µM, the TGI (UO-31 renal) was 30.8 µM and the TGI (OVCAR-4 ovarian) was 34.5 µM. For the same compound, the TGI (SN12C renal) was 29.9 µM, the TGI (HL-60(TB) leukemia) was 6.47 µM and the TGI (SNB-78 CNS) was 35.9 µM. It also gave a TGI (DMS 273 small cell lung) of 33.9 µM, a TGI (NCI-H23 lung) of 36.4 µM and a TGI (HCT-15 colon) of 11.2 µM. The TGI (HCC-2998 colon) was 31.2 µM, the TGI (SNB-75 CNS) was 32.9 µM and the TGI (RPMI-8226 leukemia) was 26.4 µM. The TGI (TK-10 renal) was 15 µM, the TGI (HCT-116 colon) was 27.6 µM and the TGI (SF-295 CNS) was 44.8 µM. For the same compound, the TGI (ACHN renal) was 22.7 µM, the TGI (HOP-18 NSCLC) was 28.9 µM and the TGI (SF-268 CNS) was 44.5 µM. The TGI (LOX IMVI melanoma) was 29 µM, the TGI (DLD-1 colon) was 12.4 µM and the TGI (HOP-62 NSCLC) was 34.1 µM. It also gave a TGI (A549 NSCLC) of 39.9 µM, a TGI (KM20L2 colon) greater than 61.8 µM and a TGI (OVCAR-8 ovarian) of 19 µM. It also gave a TGI (SW-620 colon) of 9.38 µM, a TGI (SR leukemia) of 16.7 µM and a TGI (U251 CNS) of 32.7 µM. It also gave a TGI (KM12 colon) of 36.7 µM, a TGI (CAKI-1 renal) of 6.82 µM and a TGI (UACC-257 melanoma) of 19.2 µM. It also gave a TGI (786-0 renal) of 28.6 µM, a TGI (UACC-62 melanoma) of 29.8 µM and a TGI (NCI-H226 lung) of 36.6 µM. The TGI (MALME-3M melanoma) was 15.8 µM, the TGI (OVCAR-3 ovarian) was 28.7 µM and the TGI (COLO 205 colon) was 13.5 µM. The TGI (SK-MEL-5 melanoma) was 34.1 µM, the TGI (M14 melanoma) was 28.8 µM and the TGI (HT29 colon) was 45.7 µM. It also gave a TGI (OVCAR-5 ovarian) of 34.5 µM, a TGI (SK-MEL-2 melanoma) of 30 µM and a TGI (SF-539 CNS) of 32 µM. It also gave a TGI (RXF-631 renal) of 48.7 µM, a TGI (SK-OV-3 ovarian) of 31.9 µM and a TGI (SNB-19 CNS) of 23.8 µM. For the same compound, the TGI (IGROV1 ovarian) was greater than 58.1 µM, the TGI (HOP-92 NSCLC) was 19.6 µM and the TGI (NCI-H460 lung) was 42.5 µM. The TGI (EKVX NSCLC) was greater than 60.2 µM.
